Reference: article PMC10412597, “Small molecule branched-chain ketoacid dehydrogenase kinase (BDK) inhibitors with opposing effects on BDK protein levels” (Nature Communications, 2023)

Tests used:
Abl Kinase = target: T1, Abl Kinase (Homo sapiens, UniProt P00519); design: Cerep Bioprint off-target panel, enzyme or kinase inhibition; settings: inhibitor
T1 construct: gene ABL1
Description: (§1) To discover a potent and selective BDK inhibitor, a subset of the Pfizer compound collection was screened. […] Off target activity was assessed in both CEREP and kinase panels (Supplementary Tables 2, 3).

Acetylcholinesterase = target: T2, Acetylcholinesterase (Homo sapiens, UniProt P22303); design: Cerep Bioprint off-target panel, enzyme or kinase inhibition; settings: inhibitor
T2 construct: gene ACHE
Description: as §1

[1] = target: T3, Angiotensin Coverting Enzyme (Homo sapiens, UniProt P12821); design: Cerep Bioprint off-target panel, enzyme or kinase inhibition; settings: inhibitor
T3 construct: gene ACE
Description: as §1

Aurora A Kinase = target: T4, Aurora A Kinase (Homo sapiens, UniProt O14965); design: Cerep Bioprint off-target panel, enzyme or kinase inhibition; settings: inhibitor
T4 construct: gene AURKA
Description: as §1

Cyclooxygenase 2 = target: T5, Cyclooxygenase 2 (Homo sapiens, UniProt P35354); design: Cerep Bioprint off-target panel, enzyme or kinase inhibition; settings: inhibitor
T5 construct: gene PTGS2
Description: as §1

EGFR Kinase = target: T6, EGFR Kinase (Homo sapiens, UniProt P00533); design: Cerep Bioprint off-target panel, enzyme or kinase inhibition; settings: inhibitor
T6 construct: kinase
Description: as §1

Kdr Kinase (VEGFR2) = Kdr Kinase (VEGFR2) (Homo sapiens, UniProt P35968); design: Cerep Bioprint off-target panel, enzyme or kinase inhibition; settings: inhibitor
Description: as §1

LCK = LCK (Homo sapiens, UniProt P06239); design: Cerep Bioprint off-target panel, enzyme or kinase inhibition; settings: inhibitor
Description: as §1

Monoamine Oxidase A = target: T7, Monoamine Oxidase A (Homo sapiens, UniProt P21397); design: Cerep Bioprint off-target panel, enzyme or kinase inhibition; settings: inhibitor
T7 construct: gene MAOA
Description: as §1

P38alpha MAP Kinase = target: T8, P38alpha MAP Kinase (Homo sapiens, UniProt Q16539); design: Cerep Bioprint off-target panel, enzyme or kinase inhibition; settings: inhibitor
T8 construct: gene MAPK14
Description: as §1

Phosphodiesterase 3B = target: T9, Phosphodiesterase 3B (Homo sapiens, UniProt Q13370); design: Cerep Bioprint off-target panel, enzyme or kinase inhibition; settings: inhibitor
T9 construct: gene PDE3B
Description: as §1

Phosphodiesterase 4D2 = target: T10, Phosphodiesterase 4D2 (Homo sapiens, UniProt Q08499); design: Cerep Bioprint off-target panel, enzyme or kinase inhibition; settings: inhibitor
T10 construct: gene PDE4D; isoform 4D2
Description: as §1

SRC = SRC (Homo sapiens, UniProt P12931); design: Cerep Bioprint off-target panel, enzyme or kinase inhibition; settings: inhibitor
Description: as §1

[2] = target: T11, Adrenergic Beta 1 Adrenoceptor (Homo sapiens, UniProt P08588); design: Cerep Bioprint off-target panel, functional receptor agonism or antagonism
T11 construct: gene ADRB1
Procedure, shortened: (§2)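 Compounds from a BDK inhibitor screen were counter-screened for off-target activity, with receptors in a CEREP panel and ABL1 in a kinase panel.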

Muscarinic 2 = target: T12, Muscarinic 2 (Homo sapiens, UniProt P08172); design: Cerep Bioprint off-target panel, functional receptor agonism or antagonism
T12 construct: gene CHRM2
T12 sequence (P08172 1-466): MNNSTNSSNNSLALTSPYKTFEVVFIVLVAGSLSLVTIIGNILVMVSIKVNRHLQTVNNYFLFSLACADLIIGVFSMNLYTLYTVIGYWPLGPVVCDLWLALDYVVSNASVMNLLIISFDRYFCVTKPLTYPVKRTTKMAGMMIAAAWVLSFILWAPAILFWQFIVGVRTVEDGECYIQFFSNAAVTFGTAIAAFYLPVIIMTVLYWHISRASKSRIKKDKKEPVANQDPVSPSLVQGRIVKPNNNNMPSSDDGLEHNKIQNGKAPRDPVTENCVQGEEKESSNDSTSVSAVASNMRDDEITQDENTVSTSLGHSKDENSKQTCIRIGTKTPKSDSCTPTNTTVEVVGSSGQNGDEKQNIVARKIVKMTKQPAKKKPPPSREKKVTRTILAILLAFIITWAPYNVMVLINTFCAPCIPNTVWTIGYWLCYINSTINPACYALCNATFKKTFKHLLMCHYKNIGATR
Procedure, shortened: as §2

CAMKK2 = CAMKK2 (Homo sapiens, UniProt Q96RR4); design: Invitrogen Lantha screen kinase binding, per cent inhibition of binding; settings: 10 µM, binder
Description: as §1

[3] = target: T13, Dual-specificity tyrosine-(Y)-phosphorylation regulated kinase 2 (DYRK) (Homo sapiens, UniProt Q92630); design: Invitrogen Lantha screen kinase binding, per cent inhibition of binding; settings: 10 µM, binder
T13 construct: gene DYRK2
Description: as §1

MAP3K11 = MAP3K11 (Homo sapiens, UniProt Q16584); design: Invitrogen Lantha screen kinase binding, per cent inhibition of binding; settings: 10 µM, binder
Description: as §1

MKNK2 = MKNK2 (Homo sapiens, UniProt Q9HBH9); design: Invitrogen Lantha screen kinase binding, per cent inhibition of binding; settings: 10 µM, binder
Description: as §1

MYLK = MYLK (Homo sapiens, UniProt Q15746); design: Invitrogen Lantha screen kinase binding, per cent inhibition of binding; settings: 10 µM, binder
Description: as §1

PKN2 = PKN2 (Homo sapiens, UniProt Q16513); design: Invitrogen Lantha screen kinase binding, per cent inhibition of binding; settings: 10 µM, binder
Description: as §1

[4] = target: TGF-beta activated kinase 1/MAP3K7 binding protein 1 (MAP3K7IP1) (Homo sapiens, UniProt O43318); design: Invitrogen Lantha screen kinase binding, per cent inhibition of binding; settings: 10 µM, binder
Description: as §1

TTK = TTK (Homo sapiens, UniProt P33981); design: Invitrogen Lantha screen kinase binding, per cent inhibition of binding; settings: 10 µM, binder
Description: as §1

T11 sequence (P08588 whole entry): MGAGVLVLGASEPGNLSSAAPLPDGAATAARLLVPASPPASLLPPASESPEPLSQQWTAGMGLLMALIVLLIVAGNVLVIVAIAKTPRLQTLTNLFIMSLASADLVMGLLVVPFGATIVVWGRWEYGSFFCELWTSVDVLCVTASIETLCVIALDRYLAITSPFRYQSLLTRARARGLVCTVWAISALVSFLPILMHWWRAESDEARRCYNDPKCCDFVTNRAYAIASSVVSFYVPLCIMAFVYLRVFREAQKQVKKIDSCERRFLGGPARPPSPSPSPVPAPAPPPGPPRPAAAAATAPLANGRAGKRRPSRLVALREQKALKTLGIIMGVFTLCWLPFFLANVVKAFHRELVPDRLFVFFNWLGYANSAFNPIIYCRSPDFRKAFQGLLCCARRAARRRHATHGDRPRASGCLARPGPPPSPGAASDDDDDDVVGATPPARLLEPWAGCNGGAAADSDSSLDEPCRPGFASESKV
Chain of TTK (P33981 whole entry): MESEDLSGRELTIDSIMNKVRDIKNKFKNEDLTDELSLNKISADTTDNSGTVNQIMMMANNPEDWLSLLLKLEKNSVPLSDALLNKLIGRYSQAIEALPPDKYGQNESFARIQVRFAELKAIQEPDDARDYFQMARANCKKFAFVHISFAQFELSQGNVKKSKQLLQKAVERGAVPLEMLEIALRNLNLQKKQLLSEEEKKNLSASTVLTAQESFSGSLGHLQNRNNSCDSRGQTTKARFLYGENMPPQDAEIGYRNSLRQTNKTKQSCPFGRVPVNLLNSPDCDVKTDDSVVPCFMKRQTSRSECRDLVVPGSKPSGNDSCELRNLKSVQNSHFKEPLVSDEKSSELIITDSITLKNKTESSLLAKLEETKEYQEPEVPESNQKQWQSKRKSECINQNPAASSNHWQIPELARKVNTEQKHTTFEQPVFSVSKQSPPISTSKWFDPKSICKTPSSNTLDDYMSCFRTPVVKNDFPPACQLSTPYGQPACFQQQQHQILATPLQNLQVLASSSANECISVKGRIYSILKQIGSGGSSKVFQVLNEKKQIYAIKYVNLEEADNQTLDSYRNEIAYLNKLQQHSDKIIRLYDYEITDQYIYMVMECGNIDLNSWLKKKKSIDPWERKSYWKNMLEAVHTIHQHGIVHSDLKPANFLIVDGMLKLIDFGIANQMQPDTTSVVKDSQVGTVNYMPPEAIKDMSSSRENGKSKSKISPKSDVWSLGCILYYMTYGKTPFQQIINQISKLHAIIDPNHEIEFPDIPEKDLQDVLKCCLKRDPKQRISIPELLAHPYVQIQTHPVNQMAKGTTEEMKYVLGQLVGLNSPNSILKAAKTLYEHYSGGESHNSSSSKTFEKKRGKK
T8 sequence (Q16539 whole entry): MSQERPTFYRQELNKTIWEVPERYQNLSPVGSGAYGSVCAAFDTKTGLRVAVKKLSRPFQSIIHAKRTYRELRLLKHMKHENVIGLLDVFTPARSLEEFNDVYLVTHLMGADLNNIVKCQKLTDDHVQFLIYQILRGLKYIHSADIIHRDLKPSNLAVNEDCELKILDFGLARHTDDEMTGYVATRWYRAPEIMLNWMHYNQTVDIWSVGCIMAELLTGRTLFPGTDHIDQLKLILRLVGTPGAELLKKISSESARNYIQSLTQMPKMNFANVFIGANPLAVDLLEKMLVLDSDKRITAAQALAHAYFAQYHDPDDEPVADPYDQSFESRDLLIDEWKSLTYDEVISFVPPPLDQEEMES
T7 sequence (P21397 whole entry): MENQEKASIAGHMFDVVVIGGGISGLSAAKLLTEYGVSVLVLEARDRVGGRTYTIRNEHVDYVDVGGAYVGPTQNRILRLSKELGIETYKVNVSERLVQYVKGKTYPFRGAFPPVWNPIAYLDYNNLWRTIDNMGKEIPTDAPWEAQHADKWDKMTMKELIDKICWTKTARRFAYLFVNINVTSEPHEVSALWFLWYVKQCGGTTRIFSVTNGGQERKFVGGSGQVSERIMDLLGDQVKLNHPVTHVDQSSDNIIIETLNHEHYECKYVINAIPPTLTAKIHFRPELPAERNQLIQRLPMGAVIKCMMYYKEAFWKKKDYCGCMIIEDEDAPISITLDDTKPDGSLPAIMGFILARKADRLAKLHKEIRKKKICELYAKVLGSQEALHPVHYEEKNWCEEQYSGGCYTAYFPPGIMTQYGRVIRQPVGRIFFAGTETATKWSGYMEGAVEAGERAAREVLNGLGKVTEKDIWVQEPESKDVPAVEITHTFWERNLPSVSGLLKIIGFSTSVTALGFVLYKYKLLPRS
T13 sequence (Q92630 whole entry): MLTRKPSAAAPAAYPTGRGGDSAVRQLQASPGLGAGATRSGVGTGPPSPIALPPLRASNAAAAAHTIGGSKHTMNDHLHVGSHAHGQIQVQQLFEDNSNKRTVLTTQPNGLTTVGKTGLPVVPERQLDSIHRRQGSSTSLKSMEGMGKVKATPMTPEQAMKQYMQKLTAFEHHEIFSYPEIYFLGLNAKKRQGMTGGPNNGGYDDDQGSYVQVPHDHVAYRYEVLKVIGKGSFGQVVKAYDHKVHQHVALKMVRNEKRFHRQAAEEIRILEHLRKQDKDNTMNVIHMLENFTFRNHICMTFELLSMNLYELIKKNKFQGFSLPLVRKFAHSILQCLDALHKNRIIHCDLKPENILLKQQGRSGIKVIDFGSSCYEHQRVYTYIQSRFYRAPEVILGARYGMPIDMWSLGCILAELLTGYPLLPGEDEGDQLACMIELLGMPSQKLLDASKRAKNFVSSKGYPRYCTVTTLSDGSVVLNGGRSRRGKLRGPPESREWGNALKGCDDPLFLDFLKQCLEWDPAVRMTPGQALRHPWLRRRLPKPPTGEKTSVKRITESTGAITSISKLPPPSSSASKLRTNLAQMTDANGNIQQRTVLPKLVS
T3 sequence (P12821 whole entry): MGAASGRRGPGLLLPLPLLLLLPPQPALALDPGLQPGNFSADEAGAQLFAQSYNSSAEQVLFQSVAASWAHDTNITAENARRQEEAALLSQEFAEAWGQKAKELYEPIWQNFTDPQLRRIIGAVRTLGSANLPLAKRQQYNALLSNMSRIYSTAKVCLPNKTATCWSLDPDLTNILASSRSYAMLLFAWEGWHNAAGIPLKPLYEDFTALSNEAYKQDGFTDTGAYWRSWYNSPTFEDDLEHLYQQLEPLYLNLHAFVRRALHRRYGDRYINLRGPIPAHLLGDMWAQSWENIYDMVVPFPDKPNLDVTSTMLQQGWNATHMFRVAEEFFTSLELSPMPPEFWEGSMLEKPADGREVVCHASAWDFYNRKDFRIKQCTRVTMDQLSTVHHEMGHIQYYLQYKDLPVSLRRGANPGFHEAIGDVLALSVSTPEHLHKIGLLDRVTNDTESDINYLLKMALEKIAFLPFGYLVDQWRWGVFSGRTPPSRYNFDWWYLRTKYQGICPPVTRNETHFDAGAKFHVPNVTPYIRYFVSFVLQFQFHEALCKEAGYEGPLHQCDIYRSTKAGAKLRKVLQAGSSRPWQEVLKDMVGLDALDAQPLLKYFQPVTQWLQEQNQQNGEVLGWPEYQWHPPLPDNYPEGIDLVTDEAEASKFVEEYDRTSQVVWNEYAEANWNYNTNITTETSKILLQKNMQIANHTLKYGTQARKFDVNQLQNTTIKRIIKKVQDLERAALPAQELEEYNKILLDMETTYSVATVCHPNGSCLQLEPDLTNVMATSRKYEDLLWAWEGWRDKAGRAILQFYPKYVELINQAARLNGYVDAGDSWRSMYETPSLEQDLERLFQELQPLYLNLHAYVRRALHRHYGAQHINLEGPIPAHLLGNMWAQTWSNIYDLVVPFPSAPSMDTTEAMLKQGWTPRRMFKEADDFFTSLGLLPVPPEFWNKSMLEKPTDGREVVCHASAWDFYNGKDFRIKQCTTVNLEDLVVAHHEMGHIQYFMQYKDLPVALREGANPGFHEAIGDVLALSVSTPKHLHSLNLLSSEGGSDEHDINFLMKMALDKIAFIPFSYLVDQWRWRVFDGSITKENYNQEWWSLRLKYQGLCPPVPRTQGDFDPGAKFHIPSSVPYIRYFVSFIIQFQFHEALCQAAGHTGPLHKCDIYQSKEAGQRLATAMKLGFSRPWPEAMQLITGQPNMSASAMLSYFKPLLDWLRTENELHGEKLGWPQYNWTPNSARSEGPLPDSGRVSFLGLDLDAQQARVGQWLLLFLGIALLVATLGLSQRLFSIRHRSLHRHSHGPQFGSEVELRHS
Chain of MKNK2 (Q9HBH9 whole entry): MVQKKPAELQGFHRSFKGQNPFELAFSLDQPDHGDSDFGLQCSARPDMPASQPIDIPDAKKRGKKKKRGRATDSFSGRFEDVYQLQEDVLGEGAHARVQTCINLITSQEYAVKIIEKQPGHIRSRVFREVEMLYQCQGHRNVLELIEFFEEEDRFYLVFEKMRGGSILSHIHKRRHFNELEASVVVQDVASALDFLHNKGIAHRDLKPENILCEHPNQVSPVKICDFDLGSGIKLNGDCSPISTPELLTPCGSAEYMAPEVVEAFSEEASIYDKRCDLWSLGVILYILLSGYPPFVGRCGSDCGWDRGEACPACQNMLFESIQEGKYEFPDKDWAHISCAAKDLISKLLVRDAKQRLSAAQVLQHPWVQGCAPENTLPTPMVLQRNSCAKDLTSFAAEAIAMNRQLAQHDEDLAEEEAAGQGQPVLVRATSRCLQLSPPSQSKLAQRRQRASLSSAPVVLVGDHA
T4 sequence (O14965 whole entry): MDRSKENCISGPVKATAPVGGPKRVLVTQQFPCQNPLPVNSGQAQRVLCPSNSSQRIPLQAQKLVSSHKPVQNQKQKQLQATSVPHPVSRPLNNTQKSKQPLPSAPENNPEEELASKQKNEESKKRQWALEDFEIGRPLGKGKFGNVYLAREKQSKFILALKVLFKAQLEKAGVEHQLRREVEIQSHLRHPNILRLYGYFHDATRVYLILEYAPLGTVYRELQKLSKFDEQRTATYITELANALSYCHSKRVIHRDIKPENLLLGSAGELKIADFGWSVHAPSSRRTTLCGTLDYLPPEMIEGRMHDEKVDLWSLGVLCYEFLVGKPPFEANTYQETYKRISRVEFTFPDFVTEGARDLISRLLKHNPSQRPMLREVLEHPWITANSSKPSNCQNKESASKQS

CCC1(COc2ccc(-c3csc(-c4ccccc4C(=O)O)n3)cn2)CC1 [PF-07247685, 2-(4-{6-[(1-ethylcyclopropyl)methoxy]pyridin-3-yl}-1,3-thiazol-2-yl)benzoic acid] was tested, and the “% Inhibition PF-07247685” value (Abl Kinase; 10 µM) was 11%, the “% Inhibition PF-07247685” value (Acetylcholinesterase; 10 µM) was -4% and the “% Inhibition PF-07247685” value ([1]; 10 µM) was -31%. For the same compound, the “% Inhibition PF-07247685” value (Aurora A Kinase; 10 µM) was -7%, the “% Inhibition PF-07247685” value (Cyclooxygenase 2; 10 µM) was 4% and the “% Inhibition PF-07247685” value (EGFR Kinase; 10 µM) was -6%. For the same compound, the “% Inhibition PF-07247685” value (Kdr Kinase (VEGFR2); 10 µM) was -11%, the “% Inhibition PF-07247685” value (LCK; 10 µM) was -2% and the “% Inhibition PF-07247685” value (Monoamine Oxidase A; 10 µM) was 12%. For the same compound, the “% Inhibition PF-07247685” value (P38alpha MAP Kinase; 10 µM) was 3%, the “% Inhibition PF-07247685” value (Phosphodiesterase 3B; 10 µM) was -16% and the “% Inhibition PF-07247685” value (Phosphodiesterase 4D2; 10 µM) was -24%. The “% Inhibition PF-07247685” value (SRC; 10 µM) was -8%, the “% (agonism) PF-07247685” value ([2]; 10 µM, agonist) was 6% and the “% Inhibition (antagonism) PF-07247685” value ([2]; 10 µM, antagonist) was 27%. The “% (agonism) PF-07247685” value (Muscarinic 2; 10 µM, agonist) was 3%, the “% Inhibition (antagonism) PF-07247685” value (Muscarinic 2; 10 µM, antagonist) was 2% and the “Lantha Binding % Inhibition PF-07247685” value (CAMKK2) was 1.8%. For the same compound, the “Lantha Binding % Inhibition PF-07247685” value [3] was 1.9%, the “Lantha Binding % Inhibition PF-07247685” value (MAP3K11) was -2.2% and the “Lantha Binding % Inhibition PF-07247685” value (MKNK2) was 1.2%. For the same compound, the “Lantha Binding % Inhibition PF-07247685” value (MYLK) was 1.3%, the “Lantha Binding % Inhibition PF-07247685” value (PKN2) was -1.7% and the “Lantha Binding % Inhibition PF-07247685” value [4] was -1.9%. For the same compound, the “Lantha Binding % Inhibition PF-07247685” value (TTK) was 3.6%.

In the case of O=C(O)c1sc2cc(F)sc2c1Cl [PF-07208254, 3-chloro-5-fluorothieno[3,2-b]thiophene-2-carboxylic acid], the “% Inhibition PF-07208254” value (Abl Kinase; 100 µM) is reported as 42%, the “% Inhibition PF-07208254” value (Acetylcholinesterase; 100 µM) is reported as -4% and the “% Inhibition PF-07208254” value ([1]; 100 µM) is reported as -4%. The “% Inhibition PF-07208254” value (Aurora A Kinase; 100 µM) was 15%, the “% Inhibition PF-07208254” value (Cyclooxygenase 2; 100 µM) was 0% and the “% Inhibition PF-07208254” value (EGFR Kinase; 100 µM) was 19%. For the same compound, the “% Inhibition PF-07208254” value (Kdr Kinase (VEGFR2); 100 µM) was 57%, the “% Inhibition PF-07208254” value (LCK; 100 µM) was -4% and the “% Inhibition PF-07208254” value (Monoamine Oxidase A; 100 µM) was 0%. For the same compound, the “% Inhibition PF-07208254” value (P38alpha MAP Kinase; 100 µM) was 35%, the “% Inhibition PF-07208254” value (Phosphodiesterase 3B; 100 µM) was -9% and the “% Inhibition PF-07208254” value (Phosphodiesterase 4D2; 100 µM) was -11%. The “% Inhibition PF-07208254” value (SRC; 100 µM) was 11%, the “% (agonism) PF-07208254” value ([2]; 100 µM, agonist) was 2% and the “% Inhibition (antagonism) PF-07208254” value ([2]; 100 µM, antagonist) was 8%. For the same compound, the “% (agonism) PF-07208254” value (Muscarinic 2; 100 µM, agonist) was 39%, the “% Inhibition (antagonism) PF-07208254” value (Muscarinic 2; 100 µM, antagonist) was -7% and the “Lantha Binding % Inhibition PF-07208254” value (CAMKK2) was 7.8%. For the same compound, the “Lantha Binding % Inhibition PF-07208254” value [3] was 29.2%, the “Lantha Binding % Inhibition PF-07208254” value (MAP3K11) was 6.8% and the “Lantha Binding % Inhibition PF-07208254” value (MKNK2) was 11.8%. The “Lantha Binding % Inhibition PF-07208254” value (MYLK) was 3.3%, the “Lantha Binding % Inhibition PF-07208254” value (PKN2) was 8.1% and the “Lantha Binding % Inhibition PF-07208254” value [4] was 2.6%. For the same compound, the “Lantha Binding % Inhibition PF-07208254” value (TTK) was 16.2%.
